In one assay the target is T1, human FAAH (Homo sapiens, UniProt O00519).
T1 construct: made in house; host or cells: E. coli
T1 sequence (O00519 1-579): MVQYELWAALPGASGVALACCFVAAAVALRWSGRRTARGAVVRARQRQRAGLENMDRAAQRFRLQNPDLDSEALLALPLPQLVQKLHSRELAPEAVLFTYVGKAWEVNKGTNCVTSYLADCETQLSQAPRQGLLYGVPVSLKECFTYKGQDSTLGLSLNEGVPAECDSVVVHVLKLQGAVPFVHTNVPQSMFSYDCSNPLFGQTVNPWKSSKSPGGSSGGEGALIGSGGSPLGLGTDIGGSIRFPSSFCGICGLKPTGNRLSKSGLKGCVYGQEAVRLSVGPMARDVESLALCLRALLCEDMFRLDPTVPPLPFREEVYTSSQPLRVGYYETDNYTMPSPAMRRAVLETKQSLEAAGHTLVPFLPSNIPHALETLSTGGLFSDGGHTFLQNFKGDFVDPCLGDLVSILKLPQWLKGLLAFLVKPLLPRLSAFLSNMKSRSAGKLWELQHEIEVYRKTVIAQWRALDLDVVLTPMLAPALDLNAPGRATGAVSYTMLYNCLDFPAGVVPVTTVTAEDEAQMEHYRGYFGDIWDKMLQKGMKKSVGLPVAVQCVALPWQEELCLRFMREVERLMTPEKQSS
As to the kind of experiment: FAAH assay, human FAAH enzyme inhibition (kinact/Ki). Format: biochemical. As to conditions: oleamide substrate 50 μM, 30° C., read-out: hFAAH kinact/Ki. An outline of the steps:
(§1)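 Purified E. coli-expressed FAAH (1-4 nM) with oleamide at Km (50 μM), coupled GDH/NADH read at 340 nm over 90 min, 30° C, pH 7.4, 7.5% DMSO and EtOH. kobs from mono-exponential fits; kinact/Ki from kobs vs inhibitor slope, multiplied by two.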

For the next assay, the target named is T2, rat FAAH (Rattus norvegicus, UniProt P97612).
T2 construct: made in house; host or cells: E. coli
T2 sequence (P97612 1-579): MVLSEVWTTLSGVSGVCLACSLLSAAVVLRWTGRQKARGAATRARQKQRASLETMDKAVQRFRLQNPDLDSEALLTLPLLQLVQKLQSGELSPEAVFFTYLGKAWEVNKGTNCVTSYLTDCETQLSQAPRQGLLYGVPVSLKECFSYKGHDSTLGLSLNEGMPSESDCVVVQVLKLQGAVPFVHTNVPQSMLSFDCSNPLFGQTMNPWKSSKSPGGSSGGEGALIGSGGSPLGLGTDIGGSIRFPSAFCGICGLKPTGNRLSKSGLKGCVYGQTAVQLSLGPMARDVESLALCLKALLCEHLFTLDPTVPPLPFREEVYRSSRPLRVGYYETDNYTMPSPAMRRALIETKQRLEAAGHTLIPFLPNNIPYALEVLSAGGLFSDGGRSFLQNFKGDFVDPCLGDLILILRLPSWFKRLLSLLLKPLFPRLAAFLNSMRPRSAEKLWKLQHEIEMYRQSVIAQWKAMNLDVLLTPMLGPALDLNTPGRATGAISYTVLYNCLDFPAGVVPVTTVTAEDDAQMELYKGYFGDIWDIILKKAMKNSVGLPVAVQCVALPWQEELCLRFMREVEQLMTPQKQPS
As to the kind of experiment: FAAH assay, rat FAAH enzyme inhibition (kinact/Ki). Format: biochemical. As to conditions: oleamide substrate 50 μM, 30° C., read-out: rFAAH kinact/Ki. In outline: as §1

Assay [1] has as its system Male Sprague-Dawley Rats. As to the kind of experiment: In vivo Complete Freund's Adjuvant (CFA) efficacy assay. More on the design: species or system rat; key: (+) indicates the test compound was determined to be efficacious at 3 mpk, oral dosing; (−) indicates the test compound was determined to not be efficacious at 3 mpk, oral dosing. The conditions noted are these: inhibition of allodynia vs vehicle, p<0.05.

In assay [2] the test system is Male Sprague-Dawley Rats. The description is as above. More on the design: species or system rat; key: (+) indicates the test compound was determined to be efficacious at 3 mpk, oral dosing; (−) indicates the test compound was determined to not be efficacious at 3 mpk, oral dosing. As to conditions: 3 mpk, oral dosing; inhibition of allodynia (PWT) four hours postdose vs vehicle, p<0.05. How it is done:
For additional information on the CFA efficacy assay, see Jayamanne et al., Brit. J. Pharmacol. 2006, 147, 281-288. Experiments were performed on adult Male Sprague-Dawley Rats (200 g-250 g). Inflammation was induced in the left hindpaw of the rat by an intra-plantar injection of 150 uL Complete Freund's Adjuvant (CFA) (SIGMA F5881). The CFA injection immediately induces local inflammation, paw swelling, and pain that persists for at least two weeks post-injection. Baseline paw withdrawal threshold (PWT) was measured to determine the percent inhibition of allodynia using a set of Von Frey Hairs on day 4 post injection as illustrated by the Dixon Up and Down Method (W. J. Dixon, Ann. Rev. Pharmacol. Toxicol. 1980, 20:441-462). […] Test compound was administered at a concentration of 3 mg/kg (mpk) orally with the dosing vehicle 5% N,N′-Dimethylacetamide (SIGMA D137510) and 95% (40% 2-hydroxypropyl-beta-cyclodextrin in water) (SIGMA H107). Following Dose administration PWT threshold was evaluated again at four hours postdose. The Sprague-Dawley rats used in this assay were purchased from Harlan, 8520 Allison Pointe Blvd., Indianapolis, Ind., 46250, U.S.A. Sprague-Dawley rats are an outbred breed of albino rats first produced by the Sprague Dawley farms in Madison, Wis., U.S.A.
Percent Inhibition of Allodynia was determined by the formula: […]
ΔPWT measurements were averaged for each treatment group and statistical comparisons between groups were made using ANOVA and Dunnett's two-tailed test. […]

Marks after values point to notes of the source that are not given here.

Regarding `O=C(Nc1cccnn1)N1CCC2(CC1)CC(c1cccc(Oc3ccc(C(F)(F)F)cn3)c1)C2` [Example 1, N-pyridazin-3-yl-2-(3-{[5-(trifluoromethyl)pyridin-2-yl]oxy}phenyl)-7-azaspiro[3.5]nonane-7-carboxamide], the kinact/KI stood at 1570 M⁻¹ s⁻¹ on human FAAH and 647 M⁻¹ s⁻¹ on rat FAAH. The “CFA Efficacy” value with Male Sprague-Dawley Rats [1] (10 mpk, intraperitoneal dosing) is recorded as “(−)^c”.
For `Cc1noc(NC(=O)N2CCC3(CC2)CC(c2cccc(Oc4ccc(C(F)(F)F)cn4)c2)C3)c1C` [Example 2, N-(3,4-dimethylisoxazol-5-yl)-2-(3-{[5-(trifluoromethyl)pyridin-2-yl]oxy}phenyl)-7-azaspiro[3.5]nonane-7-carboxamide], the kinact/KI at human FAAH turned out to be 1760 M⁻¹ s⁻¹; at rat FAAH it was 9460 M⁻¹ s⁻¹. In the assay on Male Sprague-Dawley Rats [1] (25 mpk, intraperitoneal dosing), the “CFA Efficacy” value is listed as “(+)^d”.
In the case of `O=C(Nc1noc2ccccc12)N1CCC2(CC1)CC(c1cccc(Oc3ccc(C(F)(F)F)cn3)c1)C2` [Example 3, N-1,2-benzisoxazol-3-yl-2-(3-{[5-(trifluoromethyl)pyridin-2-yl]oxy}phenyl)-7-azaspiro[3.5]nonane-7-carboxamide], the kinact/KI was 1030 M⁻¹ s⁻¹ at human FAAH and 4920 M⁻¹ s⁻¹ at rat FAAH. Besides, the “CFA Efficacy” value is reported as “(−)” with Male Sprague-Dawley Rats [1] (1 mpk, oral dosing) and “(+)” in the assay on Male Sprague-Dawley Rats [1] (25 mpk, intraperitoneal dosing).
For the molecule `COc1cccc(C2CC3(CCN(C(=O)Nc4onc(C)c4C)CC3)C2)c1` [Example 5, N-(3,4-dimethylisoxazol-5-yl)-2-(3-methoxyphenyl)-7-azaspiro[3.5]nonane-7-carboxamide], the kinact/KI at human FAAH amounted to 2190 M⁻¹ s⁻¹; at rat FAAH it was 741 M⁻¹ s⁻¹. Further, the “CFA Efficacy” value in the assay on Male Sprague-Dawley Rats [1] (10 mpk, intraperitoneal dosing) is listed as “(+)^c”.
In the case of `Cc1noc(NC(=O)N2CCC3(CC2)CC(c2cccc(C(F)(F)F)c2)C3)c1C` [Example 6, N-(3,4-dimethylisoxazol-5-yl)-2-[3-(trifluoromethyl)phenyl]-7-azaspiro[3.5]nonane-7-carboxamide], the kinact/KI on human FAAH was found to be 3060 M⁻¹ s⁻¹; at rat FAAH, 3690 M⁻¹ s⁻¹. The “CFA Efficacy” value in the assay on Male Sprague-Dawley Rats [1] (1 mpk, oral dosing) is “(−)^e”.
For the molecule `Cc1cccc(C2CC3(CCN(C(=O)Nc4onc(C)c4C)CC3)C2)c1` [Example 7, N-(3,4-dimethylisoxazol-5-yl)-2-(3-methylphenyl)-7-azaspiro[3.5]nonane-7-carboxamide], the figures for the kinact/KI on human FAAH and at rat FAAH were 2870 M⁻¹ s⁻¹ and 1620 M⁻¹ s⁻¹, respectively. Further, the “CFA Efficacy” value in the assay with Male Sprague-Dawley Rats [1] (1 mpk, oral dosing) is “(−)^e”.
In the case of `Cc1ccc(C2CC3(CCN(C(=O)Nc4onc(C)c4C)CC3)C2)cc1C` [Example 8, N-(3,4-dimethylisoxazol-5-yl)-2-(3,4-dimethylphenyl)-7-azaspiro[3.5]nonane-7-carboxamide], the kinact/KI on human FAAH turned out to be 2820 M⁻¹ s⁻¹; on rat FAAH it was 1920 M⁻¹ s⁻¹. Besides, the “CFA Efficacy” value in the assay with Male Sprague-Dawley Rats [1] (1 mpk, oral dosing) is “(−)^e”.
On to `O=C(Nc1cccnn1)N1CCC2(CC1)CC(c1cccc(Oc3ncc(Br)cn3)c1)C2` [Example 9, 2-{3-[(5-bromopyrimidin-2-yl)oxy]phenyl}-N-pyridazin-3-yl-7-azaspiro[3.5]nonane-7-carboxamide], for which the values for the kinact/KI at human FAAH and at rat FAAH were 2450 M⁻¹ s⁻¹ and 1430 M⁻¹ s⁻¹, respectively. Also, the “CFA Efficacy” value in the assay on Male Sprague-Dawley Rats [1] (10 mpk, intraperitoneal dosing) is “(+)^c”.
For the molecule `O=C(Nc1cccnn1)N1CCC2(CC1)CC(c1cccc(Oc3ccc(Br)cn3)c1)C2` [Example 10, 2-{3-[(5-bromopyridin-2-yl)oxy]phenyl}-N-pyridazin-3-yl-7-azaspiro[3.5]nonane-7-carboxamide], the kinact/KI on human FAAH was determined as 2040 M⁻¹ s⁻¹; at rat FAAH, 1820 M⁻¹ s⁻¹. Besides, the “CFA Efficacy” value with Male Sprague-Dawley Rats [1] (10 mpk, intraperitoneal dosing) is “(−)^c”.
For the molecule `Cn1nnnc1NC(=O)N1CCC2(CC1)CC(c1cccc(C(F)(F)F)c1F)C2` [Example 47, 2-[2-fluoro-3-(trifluoromethyl)phenyl]-N-(1-methyl-1H-tetrazol-5-yl)-7-azaspiro[3.5]nonane-7-carboxamide], the results for the kinact/KI at human FAAH and on rat FAAH were 15400 M⁻¹ s⁻¹ and 3330 M⁻¹ s⁻¹, respectively. Moreover, the “CFA Efficacy” value in the assay on Male Sprague-Dawley Rats [2] is given as “(+)”.
`Cn1nnnc1NC(=O)N1CCC2(CC1)CC(c1ccc(F)c(Cl)c1)C2` [Example 48, 2-(3-chloro-4-fluorophenyl)-N-(1-methyl-1H-tetrazol-5-yl)-7-azaspiro[3.5]nonane-7-carboxamide]: the kinact/KI was found to be 16300 M⁻¹ s⁻¹ on human FAAH and 5940 M⁻¹ s⁻¹ on rat FAAH. The “CFA Efficacy” value with Male Sprague-Dawley Rats [2] is given as “(+)”.
With `Cn1nnnc1NC(=O)N1CCC2(CC1)CC(c1noc(-c3ccc(C(F)(F)F)cc3)n1)C2` [Example 49, N-(1-methyl-1H-tetrazol-5-yl)-2-{5-[4-(trifluoromethyl)phenyl]-1,2,4-oxadiazol-3-yl}-7-azaspiro[3.5]nonane-7-carboxamide], the results for the kinact/KI at human FAAH and on rat FAAH were 5240 M⁻¹ s⁻¹ and 552 M⁻¹ s⁻¹, respectively. Further, in the assay on Male Sprague-Dawley Rats [2], the “CFA Efficacy” value is on record as “(+)”.
With `Cn1nnnc1NC(=O)N1CCC2(CC1)CC(c1noc(-c3ccc(OC(F)(F)F)cc3)n1)C2` [Example 50, N-(1-methyl-1H-tetrazol-5-yl)-2-{5-[4-(trifluoromethoxy)phenyl]-1,2,4-oxadiazol-3-yl}-7-azaspiro[3.5]nonane-7-carboxamide], the kinact/KI came out at 16700 M⁻¹ s⁻¹ on human FAAH and 3530 M⁻¹ s⁻¹ on rat FAAH. Further, the “CFA Efficacy” value with Male Sprague-Dawley Rats [2] was “(+)”.
On to `Cn1nnnc1NC(=O)N1CCC2(CC1)CC(F)(c1cccc(OC(F)(F)F)c1)C2` [Example 53, 2-fluoro-N-(1-methyl-1H-tetrazol-5-yl)-2-[3-(trifluoromethoxy)phenyl]-7-azaspiro[3.5]nonane-7-carboxamide], for which the figures for the kinact/KI at human FAAH and on rat FAAH were 13900 M⁻¹ s⁻¹ and 1920 M⁻¹ s⁻¹, respectively. Further, in the assay with Male Sprague-Dawley Rats [2], the “CFA Efficacy” value is reported as “(+)”.
The matching figures for `Cn1nnnc1NC(=O)N1CCC2(CC1)CC(c1cccc(Oc3ccc(C(F)(F)F)cn3)c1)C2` [Example 54, N-(1-methyl-1H-tetrazol-5-yl)-2-(3-{[5-(trifluoromethyl)pyridin-2-yl]oxy}phenyl)-7-azaspiro[3.5]nonane-7-carboxamide]: 21700 M⁻¹ s⁻¹, 26800 M⁻¹ s⁻¹ and “(+)”.

The values above are taken from patent US20100113465A1, “7-AZASPIRO[3.5]NONANE-7-CARBOXAMIDE COMPOUNDS” (Pfizer Inc., priority 2008, published 2010).
